{"source": "patent US20090227559A1", "about": "“SNPS IN THE APOB GENE AND SUSCEPTIBILITY TO INCREASED LEVELS OF ALAT FOLLOWING XIMELAGATRAN ADMINISTRATION” (AstraZeneca AB, priority 2005, published 2009)", "test": "Clinical trials, longer-term ximelagatran treatment: ALAT elevation in patients", "type": "in vivo, human", "from_the_text": "Alanine aminotransferase (ALAT) is an enzyme mostly expressed in the liver (EC 2.6.1.2). It is also called serum glutamate pyruvate transaminase (SGPT) or alanine transaminase (ALT). This enzyme is release into the plasma by liver cell death, which is a normal event. However, when liver cell death increases, ALAT levels rise above the normal range. The spillover of this enzyme into blood is routinely measured as a marker of abnormal liver-cell damage. For example, alcoholic or viral hepatitis will increase ALAT levels, as will severe congestive heart failure. ALAT is also markedly raised in hepatitis and other acute liver damage. An elevated ALAT in the presence of normal levels of plasma alkaline phosphatase helps distinguish liver disease caused by liver-cell damage from diseases caused by problems in biliary ducts. Elevations of ALAT are normally measured in multiples of the upper limit of normal (ULN), with a reference range of 15-45 U/L in most laboratories. In 1987, in a study of 19,877 healthy Air Force recruits, only 99 (0.5%) had confirmed ALAT elevations (as reviewed in Green & Flamm (2002) Gastroenterology 123:1367-1384).\nSubject to the future regulatory approval of ximelagatran, regular liver function testing (LFT) using an appropriate algorithm may be required if ximelagatran is used for treatment periods exceeding a month. Studies are currently ongoing to try and establish the mechanism of the ALAT elevations, and their hepatic and overall clinical significance."}
{"smiles": "CCOC(=O)CN[C@@H](C(=O)N1CC[C@H]1C(=O)NCc1ccc(/C(N)=N\\O)cc1)C1CCCCC1", "note": "[ximelagatran, EtOOC—CH2—(R)Cgl-Aze-Pab-OH]", "values": [{"measurement": "symptoms accompanying ALAT increases", "setting": "longer-term treatment", "result": "mainly asymptomatic"}, {"measurement": "patients exhibiting levels of alanine aminotransferase (ALAT) 3-fold or more above the upper limit of normal (≧3×ULN)", "setting": "longer-term treatment (>35 days), 1.2% in the comparator groups", "result": 7.9, "unit": "%"}, {"measurement": "reversibility of ALAT increases", "setting": "regardless of whether treatment was continued or discontinued", "result": "reversible in most patients"}, {"measurement": "time of occurrence of the increase in ALAT values", "setting": "usually, from start of treatment", "result": "≤ 6", "unit": "months"}]}
